From publication PMC9963398, “Discovery of New Quinolone-Based Diarylamides as Potent B-RAF^V600E/C-RAF Kinase Inhibitors Endowed with Promising In Vitro Anticancer Activity” (International Journal of Molecular Sciences, 2023)

How the values were obtained:
[1] = molecular target: T1, B-RAF^V600E (Homo sapiens, UniProt P15056, V600E); test: HotSpot kinase assay (RBC), B-RAF^V600E; assay type: biochemical; details: 10 µM ATP, 10-dose singlicate IC50 mode
T1 construct: purchased Reaction Biology Corporation (RBC), Kinase HotSpot service

[2] = system: 786-0; test: NCI-60 five-dose SRB assay; assay type: cell-based; details: Homo sapiens; 786-0, Renal cancer, five-dose test
Experimental: (§1) The anticancer screening of target compounds over a full panel of 60 human cancer cell lines was carried out using Sulforhodamine B (SRB) assay at the National Cancer Institute (NCI), Bethesda, Maryland, USA, employing the standard protocol.

[3] = system: A498; test: NCI-60 five-dose SRB assay; assay type: cell-based; details: Homo sapiens; A498, Renal cancer, five-dose test
Experimental: as §1

[4] = system: BT-549; test: NCI-60 five-dose SRB assay; assay type: cell-based; details: Homo sapiens; BT-549, Breast cancer, five-dose test
Experimental: as §1

[5] = system: CAKI-1; test: NCI-60 five-dose SRB assay; assay type: cell-based; details: Homo sapiens; CAKI-1, Renal cancer, five-dose test
Experimental: as §1

[6] = system: CCRF-CEM; test: NCI-60 five-dose SRB assay; assay type: cell-based; details: Homo sapiens, Leukemia, five-dose test
Experimental: as §1

[7] = system: COLO 205; test: NCI-60 five-dose SRB assay; assay type: cell-based; details: Homo sapiens; COLO 205, Colon cancer, five-dose test
Experimental: as §1

[8] = system: DU-145; test: NCI-60 five-dose SRB assay; assay type: cell-based; details: Homo sapiens; DU-145, Prostate cancer, five-dose test
Experimental: as §1

[9] = system: EKVX; test: NCI-60 five-dose SRB assay; assay type: cell-based; details: Homo sapiens, NSCL cancer, five-dose test
Experimental: as §1

[10] = system: HCC-2998; test: NCI-60 five-dose SRB assay; assay type: cell-based; details: Homo sapiens; HCC-2998, Colon cancer, five-dose test
Experimental: as §1

[11] = system: HCT-116; test: NCI-60 five-dose SRB assay; assay type: cell-based; details: Homo sapiens; HCT-116, Colon cancer, five-dose test
Experimental: as §1

[12] = system: HCT-15; test: NCI-60 five-dose SRB assay; assay type: cell-based; details: Homo sapiens; HCT-15, Colon cancer, five-dose test
Experimental: as §1

[13] = system: HOP-92; test: NCI-60 five-dose SRB assay; assay type: cell-based; details: Homo sapiens; HOP-92, NSCL cancer, five-dose test
Experimental: as §1

[14] = system: HS 578T; test: NCI-60 five-dose SRB assay; assay type: cell-based; details: Homo sapiens, Breast cancer, five-dose test
Experimental: as §1

[15] = system: HT29; test: NCI-60 five-dose SRB assay; assay type: cell-based; details: Homo sapiens, HT-29; HT29, Colon cancer, five-dose test
Experimental: as §1

[16] = system: IGROV1; test: NCI-60 five-dose SRB assay; assay type: cell-based; details: Homo sapiens, IGROV-1; IGROV1, Ovarian cancer, five-dose test
Experimental: as §1

[17] = system: LOX IMVI; test: NCI-60 five-dose SRB assay; assay type: cell-based; details: Homo sapiens, Melanoma, five-dose test
Experimental: as §1

[18] = system: MALME-3M; test: NCI-60 five-dose SRB assay; assay type: cell-based; details: Homo sapiens, Melanoma, five-dose test
Experimental: as §1

[19] = system: MCF7; test: NCI-60 five-dose SRB assay; assay type: cell-based; details: Homo sapiens; MCF7, Breast cancer, five-dose test
Experimental: as §1

[20] = system: MDA-MB-435; test: NCI-60 five-dose SRB assay; assay type: cell-based; details: Homo sapiens; MDA-MB-435, Melanoma, five-dose test
Experimental: as §1

[21] = system: MOLT-4; test: NCI-60 five-dose SRB assay; assay type: cell-based; details: Homo sapiens; MOLT-4, Leukemia, five-dose test
Experimental: as §1

[22] = system: NCI-H23; test: NCI-60 five-dose SRB assay; assay type: cell-based; details: Homo sapiens; NCI-H23, NSCL cancer, five-dose test
Experimental: as §1

[23] = system: NCI-H322M; test: NCI-60 five-dose SRB assay; assay type: cell-based; details: Homo sapiens, NSCL cancer, five-dose test
Experimental: as §1

[24] = system: NCI-H460; test: NCI-60 five-dose SRB assay; assay type: cell-based; details: Homo sapiens; NCI-H460, NSCL cancer, five-dose test
Experimental: as §1

[25] = system: NCI-H522; test: NCI-60 five-dose SRB assay; assay type: cell-based; details: Homo sapiens; NCI-H522, NSCL cancer, five-dose test
Experimental: as §1

[26] = system: OVCAR-3; test: NCI-60 five-dose SRB assay; assay type: cell-based; details: Homo sapiens; OVCAR-3, Ovarian cancer, five-dose test
Experimental: as §1

[27] = system: OVCAR-5; test: NCI-60 five-dose SRB assay; assay type: cell-based; details: Homo sapiens; OVCAR-5, Ovarian cancer, five-dose test
Experimental: as §1

[28] = system: OVCAR-8; test: NCI-60 five-dose SRB assay; assay type: cell-based; details: Homo sapiens; OVCAR-8, Ovarian cancer, five-dose test
Experimental: as §1

[29] = system: RXF 393; test: NCI-60 five-dose SRB assay; assay type: cell-based; details: Homo sapiens; RXF 393, Renal cancer, five-dose test
Experimental: as §1

[30] = system: SF-295; test: NCI-60 five-dose SRB assay; assay type: cell-based; details: Homo sapiens; SF-295, CNS cancer, five-dose test
Experimental: as §1

[31] = system: SF-539; test: NCI-60 five-dose SRB assay; assay type: cell-based; details: Homo sapiens; SF-539, CNS cancer, five-dose test
Experimental: as §1

[32] = system: SK-MEL-28; test: NCI-60 five-dose SRB assay; assay type: cell-based; details: Homo sapiens; SK-MEL-28, Melanoma, five-dose test
Experimental: as §1

[33] = system: SK-MEL-2; test: NCI-60 five-dose SRB assay; assay type: cell-based; details: Homo sapiens; SK-MEL-2, Melanoma, five-dose test
Experimental: as §1

[34] = system: SK-MEL-5; test: NCI-60 five-dose SRB assay; assay type: cell-based; details: Homo sapiens; SK-MEL-5, Melanoma, five-dose test
Experimental: as §1

[35] = system: SNB-19; test: NCI-60 five-dose SRB assay; assay type: cell-based; details: Homo sapiens; SNB-19, CNS cancer, five-dose test
Experimental: as §1

[36] = system: SNB-75; test: NCI-60 five-dose SRB assay; assay type: cell-based; details: Homo sapiens; SNB-75, CNS cancer, five-dose test
Experimental: as §1

[37] = system: UO-31; test: NCI-60 five-dose SRB assay; assay type: cell-based; details: Homo sapiens; UO-31, Renal cancer, five-dose test
Experimental: as §1

[38] = system: MDA-MB-231/ATCC; test: cells; details: Homo sapiens
Experimental: as §1

[39] = system: MDA-MB-468; test: cells; details: Homo sapiens
Experimental: as §1

[40] = system: PC-3; test: cells; details: Homo sapiens
Experimental: as §1

[41] = molecular target: C-RAF (Homo sapiens, UniProt P04049); test: HotSpot kinase assay (RBC), C-RAF; details: IC50 C-RAF, 10 µM ATP, 10-dose singlicate IC50 mode
C-RAF, sequence (P04049 whole entry): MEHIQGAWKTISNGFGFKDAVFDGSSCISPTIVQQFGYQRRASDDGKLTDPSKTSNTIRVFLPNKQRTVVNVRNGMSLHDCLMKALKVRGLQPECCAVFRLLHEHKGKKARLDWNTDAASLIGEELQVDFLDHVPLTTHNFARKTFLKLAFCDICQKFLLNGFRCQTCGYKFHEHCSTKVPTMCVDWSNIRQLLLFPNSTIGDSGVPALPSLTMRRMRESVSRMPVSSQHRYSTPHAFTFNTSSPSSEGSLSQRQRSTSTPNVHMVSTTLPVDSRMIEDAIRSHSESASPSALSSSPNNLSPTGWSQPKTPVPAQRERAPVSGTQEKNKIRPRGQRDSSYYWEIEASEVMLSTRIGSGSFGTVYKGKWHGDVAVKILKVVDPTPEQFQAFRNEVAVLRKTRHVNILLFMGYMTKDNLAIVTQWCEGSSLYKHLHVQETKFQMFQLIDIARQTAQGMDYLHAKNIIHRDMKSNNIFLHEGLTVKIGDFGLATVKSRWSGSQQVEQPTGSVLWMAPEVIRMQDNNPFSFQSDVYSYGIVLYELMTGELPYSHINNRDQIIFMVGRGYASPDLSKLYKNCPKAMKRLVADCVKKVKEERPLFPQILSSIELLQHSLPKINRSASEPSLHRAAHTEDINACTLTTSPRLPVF
Text: Reaction Biology Corporation (RBC) Kinase HotSpotSM service was utilized for cell-free biochemical kinase evaluation of the target compounds according to the reported assay protocol [46].

T1 sequence (P15056 whole entry V600E): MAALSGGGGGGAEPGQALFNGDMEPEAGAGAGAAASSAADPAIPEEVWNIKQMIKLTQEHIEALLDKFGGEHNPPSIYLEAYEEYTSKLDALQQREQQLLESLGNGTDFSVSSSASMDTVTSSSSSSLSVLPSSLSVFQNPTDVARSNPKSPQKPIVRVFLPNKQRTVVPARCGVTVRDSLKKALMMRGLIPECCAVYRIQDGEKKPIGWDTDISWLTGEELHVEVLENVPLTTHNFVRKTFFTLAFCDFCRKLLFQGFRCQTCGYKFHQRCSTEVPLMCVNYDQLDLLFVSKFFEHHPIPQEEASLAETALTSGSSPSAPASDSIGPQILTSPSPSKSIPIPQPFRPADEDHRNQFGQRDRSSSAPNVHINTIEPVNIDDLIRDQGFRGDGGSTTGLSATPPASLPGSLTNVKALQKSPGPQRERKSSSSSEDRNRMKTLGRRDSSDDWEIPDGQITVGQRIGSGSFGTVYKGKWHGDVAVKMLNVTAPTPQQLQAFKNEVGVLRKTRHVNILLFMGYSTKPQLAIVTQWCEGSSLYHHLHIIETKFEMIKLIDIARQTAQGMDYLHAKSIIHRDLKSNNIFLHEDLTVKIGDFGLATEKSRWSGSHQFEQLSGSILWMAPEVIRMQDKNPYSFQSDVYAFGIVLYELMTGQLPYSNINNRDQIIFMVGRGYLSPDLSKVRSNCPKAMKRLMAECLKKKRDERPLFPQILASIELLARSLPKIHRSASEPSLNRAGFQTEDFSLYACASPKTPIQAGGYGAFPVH

Structure (SMILES): COc1cccc2nc(Nc3cccc(NC(=O)c4ccc(CN5CCN(C)CC5)c(C(F)(F)F)c4)c3)ccc12 [Compound 14a, 4-((4-methylpiperazin-1-yl)methyl)-N-(3-((5-methoxyquinolin-2-yl)amino)phenyl)-3-(trifluoromethyl)benzamide]
- IC50 [1]: 498 ± 35.8 nM
- GI50 [2]: 1760 nM
- GI50 [3]: 2000 nM
- GI50 [4]: 7010 nM
- GI50 [5]: 1810 nM
- GI50 [6]: 2100 nM
- GI50 [7]: 1790 nM
- GI50 [8]: 1980 nM
- GI50 [9]: 2100 nM
- GI50 [10]: 1990 nM
- GI50 [11]: 1820 nM
- GI50 [12]: 1780 nM
- GI50 [13]: 1500 nM
- GI50 [14]: 1840 nM
- GI50 [15]: 1860 nM
- GI50 [16]: 2250 nM
- GI50 [17]: 1740 nM
- GI50 [18]: 1650 nM
- GI50 [19]: 1570 nM
- GI50 [20]: 1680 nM
- GI50 [21]: 1450 nM
- GI50 [22]: 1910 nM
- GI50 [23]: 2290 nM
- GI50 [24]: 1710 nM
- GI50 [25]: 1790 nM
- GI50 [26]: 2150 nM
- GI50 [27]: 1840 nM
- GI50 [28]: 3090 nM
- GI50 [29]: 1730 nM
- GI50 [30]: 1770 nM
- GI50 [31]: 1640 nM
- GI50 [32]: 1710 nM
- GI50 [33]: 3520 nM
- GI50 [34]: 1620 nM
- GI50 [35]: 1780 nM
- GI50 [36]: 1600 nM
- GI50 [37]: 1640 nM
- GI50 [38]: 1770 nM
- GI50 [39]: 1920 nM
- GI50 [40]: 1700 nM
- IC50 [41]: 151 ± 2.35 nM

Structure (SMILES): COc1cccc2nc(Nc3cccc(NC(=O)c4ccc(CN5CCCN(C)CC5)c(C(F)(F)F)c4)c3)ccc12 [Compound 14b, N-(3-((5-methoxyquinolin-2-yl)amino)phenyl)-4-((4-methyl-1,4-diazepan-1-yl)methyl)-3-(trifluoromethyl)benzamide]
- IC50 [1]: 355 ± 10.8 nM
- GI50 [2]: 1720 nM
- GI50 [3]: 13500 nM
- GI50 [4]: 2060 nM
- GI50 [5]: 1720 nM
- GI50 [6]: 1620 nM
- GI50 [7]: 1810 nM
- GI50 [8]: 2190 nM
- GI50 [9]: 1720 nM
- GI50 [10]: 1710 nM
- GI50 [11]: 1670 nM
- GI50 [12]: 1620 nM
- GI50 [14]: 2460 nM
- GI50 [15]: 1660 nM
- GI50 [16]: 1810 nM
- GI50 [17]: 1680 nM
- GI50 [18]: 1720 nM
- GI50 [19]: 1590 nM
- GI50 [20]: 1800 nM
- GI50 [21]: 1240 nM
- GI50 [22]: 1680 nM
- GI50 [23]: 2120 nM
- GI50 [24]: 1760 nM
- GI50 [25]: 1760 nM
- GI50 [26]: 2140 nM
- GI50 [27]: 1710 nM
- GI50 [28]: 2030 nM
- GI50 [29]: 1660 nM
- GI50 [30]: 1740 nM
- GI50 [31]: 1550 nM
- GI50 [32]: 1680 nM
- GI50 [33]: 2150 nM
- GI50 [34]: 1710 nM
- GI50 [35]: 1720 nM
- GI50 [36]: 1520 nM
- GI50 [37]: 1740 nM
- GI50 [38]: 1830 nM
- GI50 [39]: 1560 nM
- GI50 [40]: 1540 nM
- IC50 [41]: 192 ± 0.6 nM
